Experimental data: patent US20260109707A1, “HETEROBIFUNCTIONAL COMPOUNDS AND METHODS OF TREATING DISEASE” (Halda Therapeutics OpCo. Inc., priority 2022, published 2026)

How the values were obtained:
[1] = test system: T-Rex 293 cell line SC3 cells having increased expression of androgen receptor protein due to exposure to doxycycline; test: Cellular growth inhibition assay, T-Rex 293 SC3 cells with doxycycline (CellTiter-Glo, 72 hours); assay type: cell-based; details: 72 h, T-Rex 293 SC3 cells with increased androgen receptor expression due to doxycycline (10 ng/mL)
Summary of the method: (§1)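 Doxycycline (10 ng/mL) was either included or omitted to toggle wild-type androgen receptor expression in SC3 cells, a T-Rex 293 clone, grown in stripped-serum, phenol red-free medium. After 72 hours with compound, viable cells were quantified by CellTiter-Glo 2.0.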

BRD4-BD1 = molecular target: T1, BRD4-BD1 (Homo sapiens, UniProt O60885); test: bromoKdELECT assay for binding affinity to BRD4-BD1; details: binding to BRD4-BD1, Table 4
T1 construct: made in house; host or cells: T7 phage grown in an E. coli host derived from the BL21 strain
Experimental: (§2) Compounds were tested using a bromoKdELECT assay. T7 phage strains displaying bromodomains were grown in parallel in 24-well blocks in an E. coli host derived from the BL21 strain. E. coli were grown to log-phase and infected with T7 phage from a frozen stock (multiplicity of infection=0.4) and incubated with shaking at 32° C. until lysis (90-150 minutes). The lysates were centrifuged (5,000×g) and filtered (0.2 μm) to remove cell debris. Streptavidin-coated magnetic beads were treated with biotinylated small molecule or acetylated peptide ligands for 30 minutes at room temperature to generate affinity resins for bromodomain assays. The liganded beads were blocked with excess biotin and washed with blocking buffer (SeaBlock (Pierce), 1% BSA, 0.05% Tween 20, 1 mM DTT) to remove unbound ligand and to reduce nonspecific phage binding. Binding reactions were assembled by combining bromodomains, liganded affinity beads, and test compounds in 1× binding buffer (17% SeaBlock, 0.33×PBS, 0.04% Tween 20, 0.02% BSA, 0.004% Sodium azide, 7.4 mM DTT). Test compounds were prepared as 1000× stocks in 100% DMSO. Kds were determined using an 11-point 3-fold compound dilution series with one DMSO control point. All compounds for Kd measurements are distributed by acoustic transfer (non-contact dispensing) in 100% DMSO. The compounds were then diluted directly into the assays such that the final concentration of DMSO was 0.09%. All reactions performed in polypropylene 384-well plates. Each was a final volume of 0.02 ml. The assay plates were incubated at room temperature with shaking for 1 hour and the affinity beads were washed with wash buffer (1×PBS, 0.05% Tween 20). The beads were then resuspended in elution buffer (1×PBS, 0.05% Tween […] non-biotinylated affinity ligand) and incubated at room temperature with shaking for 30 minutes. The bromodomain concentration in the eluates was measured by qPCR.

[2] = test system: T-Rex 293 cell line SC3 cells lacking increased expression of androgen receptor protein; test: Cellular growth inhibition assay, T-Rex 293 SC3 cells without doxycycline (CellTiter-Glo, 72 hours); assay type: cell-based; details: T-Rex 293 cell line SC3 cells not exposed to doxycycline (lacking increased androgen receptor expression)
Summary of the method: as §1

BRD4-BD2 = molecular target: T2, BRD4-BD2 (Homo sapiens, UniProt O60885); test: bromoKdELECT assay for binding affinity to BRD4-BD2; details: binding to BRD4-BD2, Table 5
T2 construct: made in house; host or cells: T7 phage grown in an E. coli host derived from the BL21 strain
Experimental: as §2, with “[…])” for “μm)”

Kd (BRD4-BD1): 50 to 500 nM | Kd (BRD4-BD2): < 50 nM
SMILES: CCNC(=O)C[C@@H]1N=C(c2ccc(CCCC3CCN(c4ccc(C(=O)N[C@H]5CC[C@H](Oc6ccc(C#N)c(Cl)c6)CC5)nn4)CC3)cc2)c2c(sc(C)c2C)-n2c(C)nnc21 [I-51]
GI50 [1]: < 500 nM | GI50 [2]: 500 to 1500 nM
